Measurements taken from patent publication EP0426804B1, “2-(2-HYDROXY-3-PHENOXYPROPYLAMINO)-ETHOXYBENZENE DERIVATIVES” (IMPERIAL CHEMICAL INDUSTRIES PLC, priority 1989, dated 1990).

Tests used:
[1] = test (d): metabolic rate (oxygen consumption) in cold adapted rats; format: in vivo; conditions: at 1mgkg⁻¹ p.o.
BAT mitochondria = test: test (b): GDP binding in BAT mitochondria of cold adapted rats, relative to isoprenaline; format: in vivo; conditions: dose necessary to produce 50% of the isoprenaline (1 mg/kg) effect on GDP binding
[2] = test (c): heart rate in rats adapted to a thermoneutral environment (D500 dose and selectivity index); conditions: ratio of D₅₀₀ to ED₅₀ in test (b)

Row | SMILES | metabolic rate [1] | ED₅₀ (BAT mitochondria) | SI ([2]; oral) | SI ([2]; route not stated)
1 | CCCC(=O)Cc1ccc(OCCNCC(O)COc2ccccc2)cc1 (stereo not shown) [Example 5, 1-[4-(2-(2-hydroxy-3-phenoxypropylamino)ethoxy)phenyl]pentan-2-one] | 6.6 ml O₂ min ⁻¹Kg^.75 | 0.23 mgkg⁻¹ | > 100 | 
2 | CC(C)NCC(O)c1ccc(O)c(O)c1 (stereo not shown) [isoprenaline, reference compound] |  |  |  | 0.06
